Test results taken from ChEMBL document CHEMBL4257490, “Development of a peptide-based bifunctional chelator conjugated to a cytotoxic drug for the treatment of melanotic melanoma” (Medchemcomm, 2018).
One block for each substance: values may come before it.

Key:
[1] = Drug uptake in urinary bladder of Balb/c mouse allografted with mouse B16F10 cells using 99mTc(CO)3-labeled compound at 4 to 8 MBq, iv measured at 4 hrs by scintigraphic imaging method; type: ADME, organism-based; conditions: in vivo
[2] = Ratio of drug level in tumor to muscle of Balb/c mouse allografted with mouse B16F10 cells using 99mTc(CO)3-labeled compound at 10 to 12 MBq/kg, iv measured at 4 hrs; type: ADME, organism-based, Tumor/tissue; conditions: in vivo
[3] = Drug uptake in intestine of Balb/c mouse allografted with mouse B16F10 cells using 99mTc(CO)3-labeled compound at 10 to 12 MBq/kg, iv measured at 4 hrs; type: ADME, organism-based; conditions: in vivo
[4] = Drug uptake in mouse B16F10 cells using 99mTc(CO)3-labeled compound at 15 to 20 MBq/ml after 30 mins by gamma scintillation counting method; type: ADME, cell-based; conditions: b16-f10, 0.5 h
[5] = Drug uptake in stomach of Balb/c mouse allografted with mouse B16F10 cells using 99mTc(CO)3-labeled compound at 10 to 12 MBq/kg, iv measured at 4 hrs; type: ADME, organism-based; conditions: in vivo
[6] = Hemolytic activity in rat erythrocytes at 100 uM after 1 hr relative to control; type: ADME, cell-based, Erythrocyte; conditions: read-out: Activity
[7] = Drug uptake in spleen of Balb/c mouse allografted with mouse B16F10 cells using 99mTc(CO)3-labeled compound at 10 to 12 MBq/kg, iv measured at 2 hrs; type: ADME, organism-based; conditions: in vivo
[8] = Stability in saline assessed as parent compond remaining using 99mTc(CO)3-labeled compound after 24 hrs by TLC method; type: physicochemical; conditions: read-out: Stability
[9] = Drug uptake in spleen of Balb/c mouse allografted with mouse B16F10 cells using 99mTc(CO)3-labeled compound at 10 to 12 MBq/kg, iv measured at 4 hrs; type: ADME, organism-based; conditions: in vivo
[10] = n-Octanol-phosphate buffer partition co-efficient, log P of 99mTc(CO)3-labeled compound at 2 to 3 KBq after 1 min by gamma scintillation counting method; type: physicochemical
[11] = Drug degradation in histidine solution using 99mTc(CO)3-labeled compound after 24 hrs by TLC method; type: physicochemical; conditions: read-out: Drug degradation
[12] = Drug uptake in blood of Balb/c mouse allografted with mouse B16F10 cells using 99mTc(CO)3-labeled compound at 10 to 12 MBq/kg, iv measured at 2 hrs; type: ADME, organism-based; conditions: in vivo
[13] = Drug uptake in tumor muscle of Balb/c mouse allografted with mouse B16F10 cells using 99mTc(CO)3-labeled compound at 10 to 12 MBq/kg, iv measured at 4 hrs; type: ADME, organism-based; conditions: in vivo
[14] = Ratio of drug level in tumor to blood of Balb/c mouse allografted with mouse B16F10 cells using 99mTc(CO)3-labeled compound at 10 to 12 MBq/kg, iv measured at 2 hrs; type: ADME, organism-based, Tumor/tissue
[15] = Drug uptake in stomach of Balb/c mouse allografted with mouse B16F10 cells using 99mTc(CO)3-labeled compound at 10 to 12 MBq/kg, iv measured at 2 hrs; type: ADME, organism-based; conditions: in vivo
[16] = Drug uptake in heart of Balb/c mouse allografted with mouse B16F10 cells using 99mTc(CO)3-labeled compound at 10 to 12 MBq/kg, iv measured at 2 hrs; type: ADME, organism-based; conditions: in vivo
[17] = Drug uptake in tumor of Balb/c mouse allografted with mouse B16F10 cells using 99mTc(CO)3-labeled compound at 4 to 8 MBq, iv measured at 4 hrs by scintigraphic imaging method; type: ADME, organism-based, Neoplasm; conditions: in vivo
[18] = Drug uptake in lung of Balb/c mouse allografted with mouse B16F10 cells using 99mTc(CO)3-labeled compound at 10 to 12 MBq/kg, iv measured at 4 hrs; type: ADME, organism-based; conditions: in vivo
[19] = Drug uptake in mouse B16F10 cells using 99mTc(CO)3-labeled compound at 15 to 20 MBq/ml after 30 mins by gamma scintillation counting method relative to total added activity; type: ADME, cell-based; conditions: b16-f10, 0.5 h
[20] = Drug uptake in kidney of Balb/c mouse allografted with mouse B16F10 cells using 99mTc(CO)3-labeled compound at 10 to 12 MBq/kg, iv measured at 2 hrs; type: ADME, organism-based; conditions: in vivo
[21] = Ratio of drug level in tumor to muscle of Balb/c mouse allografted with mouse B16F10 cells using 99mTc(CO)3-labeled compound at 10 to 12 MBq/kg, iv measured at 2 hrs; type: ADME, organism-based, Tumor/tissue; conditions: in vivo
[22] = Drug uptake in muscle of Balb/c mouse allografted with mouse B16F10 cells using 99mTc(CO)3-labeled compound at 10 to 12 MBq/kg, iv measured at 4 hrs; type: ADME, organism-based, Muscle tissue; conditions: in vivo
[23] = Drug uptake in urine of Balb/c mouse allografted with mouse B16F10 cells using 99mTc(CO)3-labeled compound at 10 to 12 MBq/kg, iv measured at 2 hrs; type: ADME, organism-based; conditions: in vivo
[24] = Drug uptake in kidney of Balb/c mouse allografted with mouse B16F10 cells using 99mTc(CO)3-labeled compound at 10 to 12 MBq/kg, iv measured at 4 hrs; type: ADME, organism-based; conditions: in vivo
[25] = Drug uptake in intestine of Balb/c mouse allografted with mouse B16F10 cells using 99mTc(CO)3-labeled compound at 10 to 12 MBq/kg, iv measured at 2 hrs; type: ADME, organism-based; conditions: in vivo
[26] = Drug uptake in kidney of Balb/c mouse allografted with mouse B16F10 cells using 99mTc(CO)3-labeled compound at 4 to 8 MBq, iv measured at 4 hrs by scintigraphic imaging method; type: ADME, organism-based; conditions: in vivo
[27] = Drug uptake in liver of Balb/c mouse allografted with mouse B16F10 cells using 99mTc(CO)3-labeled compound at 10 to 12 MBq/kg, iv measured at 2 hrs; type: ADME, organism-based; conditions: in vivo
[28] = Hemolytic activity in rat erythrocytes up to 50 uM after 1 hr relative to control; type: ADME, cell-based, Erythrocyte; conditions: read-out: Activity
[29] = Drug uptake in blood of Balb/c mouse allografted with mouse B16F10 cells using 99mTc(CO)3-labeled compound at 10 to 12 MBq/kg, iv measured at 4 hrs; type: ADME, organism-based; conditions: in vivo
[30] = Drug uptake in gastrointestinal tract of Balb/c mouse allografted with mouse B16F10 cells using 99mTc(CO)3-labeled compound at 4 to 8 MBq, iv measured at 4 hrs by scintigraphic imaging method; type: ADME, organism-based; conditions: in vivo
[31] = Drug uptake in urine of Balb/c mouse allografted with mouse B16F10 cells using 99mTc(CO)3-labeled compound at 10 to 12 MBq/kg, iv measured at 4 hrs; type: ADME, organism-based; conditions: in vivo
[32] = Drug uptake in heart of Balb/c mouse allografted with mouse B16F10 cells using 99mTc(CO)3-labeled compound at 10 to 12 MBq/kg, iv measured at 4 hrs; type: ADME, organism-based; conditions: in vivo
[33] = Metabolic stability in rat serum assessed as parent compound remaining using 99mTc(CO)3-labeled compound after 24 hrs by TLC method; type: ADME, cell-free; conditions: read-out: Stability
[34] = Drug uptake in mouse B16F10 cells using 99mTc(CO)3-labeled compound at 15 to 20 MBq/ml after 240 mins by gamma scintillation counting method relative to total added activity; type: ADME, cell-based; conditions: b16-f10, 4 h
[35] = Drug uptake in liver of Balb/c mouse allografted with mouse B16F10 cells using 99mTc(CO)3-labeled compound at 4 to 8 MBq, iv measured at 4 hrs by scintigraphic imaging method; type: ADME, organism-based; conditions: in vivo
[36] = Drug uptake in lung of Balb/c mouse allografted with mouse B16F10 cells using 99mTc(CO)3-labeled compound at 10 to 12 MBq/kg, iv measured at 2 hrs; type: ADME, organism-based; conditions: in vivo
[37] = Ratio of drug level in tumor to blood of Balb/c mouse allografted with mouse B16F10 cells using 99mTc(CO)3-labeled compound at 10 to 12 MBq/kg, iv measured at 4 hrs; type: ADME, organism-based, Tumor/tissue
[38] = Drug uptake in mouse B16F10 cells using 99mTc(CO)3-labeled compound at 15 to 20 MBq/ml after 240 mins by gamma scintillation counting method; type: ADME, cell-based; conditions: b16-f10, 4 h
[39] = Drug uptake in tumor muscle of Balb/c mouse allografted with mouse B16F10 cells using 99mTc(CO)3-labeled compound at 10 to 12 MBq/kg, iv measured at 2 hrs; type: ADME, organism-based; conditions: in vivo
[40] = Drug uptake in liver of Balb/c mouse allografted with mouse B16F10 cells using 99mTc(CO)3-labeled compound at 10 to 12 MBq/kg, iv measured at 4 hrs; type: ADME, organism-based; conditions: in vivo
[41] = Drug uptake in muscle of Balb/c mouse allografted with mouse B16F10 cells using 99mTc(CO)3-labeled compound at 10 to 12 MBq/kg, iv measured at 2 hrs; type: ADME, organism-based, Muscle tissue; conditions: in vivo

Drug uptake [1]: Active
Ratio [2]: 7.78
Drug uptake [3]: 6.3 % ID/g
Drug uptake [4]: 35.24%
Drug uptake [5]: 0.21 % ID/g
Drug uptake [7]: 0.76 % ID/g
remaining at 24 h [8]: ≥ 92%
Drug uptake [9]: 0.54 % ID/g
logP at 1 min [10]: -1.34
degraded at 24 h [11]: 5%
Drug uptake [12]: 1.5 %ID/ml
Drug uptake [13]: 1.09 % ID/g
Kp at 2 h [14]: 0.61
Drug uptake [15]: 0.29 % ID/g
Drug uptake [16]: 0.09 % ID/g
Drug uptake [17]: Not Active
Drug uptake [18]: 0.19 % ID/g
Drug uptake [19]: 3.99%
Drug uptake [20]: 16.12 % ID/g
Ratio [21]: 5.75
Drug uptake [22]: 0.14 % ID/g
Drug uptake [23]: 41.15 %ID/ml
Drug uptake [24]: 13.91 % ID/g
Drug uptake [25]: 7.5 % ID/g
Drug uptake [26]: Active
Drug uptake [27]: 21.17 % ID/g
Drug uptake [29]: 1.31 %ID/ml
Drug uptake [30]: Active
Drug uptake [31]: 45.95 %ID/ml
Drug uptake [32]: 0.07 % ID/g
remaining at 24 h [33]: ≥ 92%
Drug uptake [34]: 6.11%
Drug uptake [35]: Active
Drug uptake [36]: 0.25 % ID/g
Kp at 4 h [37]: 0.83
Drug uptake [38]: 76%
Drug uptake [39]: 0.92 % ID/g
Drug uptake [40]: 18.89 % ID/g
Drug uptake [41]: 0.16 % ID/g
Substance: H-HYKHGKDGR-NH2
hemolysis at 1 h, 100 µM [6]: 7 to 9%
hemolysis at 1 h [28]: 5 to 6%

Drug uptake [1]: Active
Ratio [2]: 18.81
Drug uptake [3]: 8.32 % ID/g
Drug uptake [4]: 41.41%
Drug uptake [5]: 0.19 % ID/g
Drug uptake [7]: 0.63 % ID/g
remaining at 24 h [8]: ≥ 92%
Drug uptake [9]: 0.45 % ID/g
logP at 1 min [10]: -0.978
degraded at 24 h [11]: 5%
Drug uptake [12]: 1.88 %ID/ml
Drug uptake [13]: 3.01 % ID/g
Kp at 2 h [14]: 0.97
Drug uptake [15]: 0.23 % ID/g
Drug uptake [16]: 0.08 % ID/g
Drug uptake [17]: Active
Drug uptake [18]: 0.24 % ID/g
Drug uptake [19]: 4.76%
Drug uptake [20]: 17.15 % ID/g
Ratio [21]: 10.11
Drug uptake [22]: 0.16 % ID/g
Drug uptake [23]: 42.15 %ID/ml
Drug uptake [24]: 15.76 % ID/g
Drug uptake [25]: 7.61 % ID/g
Drug uptake [26]: Active
Drug uptake [27]: 18.15 % ID/g
Drug uptake [29]: 1.65 %ID/ml
Drug uptake [30]: Active
Drug uptake [31]: 49.26 %ID/ml
Drug uptake [32]: 0.06 % ID/g
remaining at 24 h [33]: ≥ 92%
Drug uptake [34]: 9.59%
Drug uptake [35]: Active
Drug uptake [36]: 0.33 % ID/g
Kp at 4 h [37]: 1.82
Drug uptake [38]: 83%
Drug uptake [39]: 1.83 % ID/g
Drug uptake [40]: 14.64 % ID/g
Drug uptake [41]: 0.18 % ID/g
Substance: H-HYKHGK-NH2
hemolysis at 1 h, 100 µM [6]: 7 to 9%
hemolysis at 1 h [28]: 5 to 6%
